Tests used:
[1] = mean with standard error
plasma protein = assay: Protein binding in human plasma; details: plasma protein-bound fraction, mean with standard error
HDAC7 = biological target: T1, HDAC7 (Homo sapiens, UniProt Q8WUI4); assay: Fluorescence-based HDAC inhibition assay, HDAC7; assay type: biochemical; details: for IC50: 10 μM Boc-Lys(TFA)-AMC substrate, mean of two experiments ± SEM
T1 construct: made in house; host or cells: HEK293/T17 cells, transient transfection
T1 sequence (Q8WUI4 1-952): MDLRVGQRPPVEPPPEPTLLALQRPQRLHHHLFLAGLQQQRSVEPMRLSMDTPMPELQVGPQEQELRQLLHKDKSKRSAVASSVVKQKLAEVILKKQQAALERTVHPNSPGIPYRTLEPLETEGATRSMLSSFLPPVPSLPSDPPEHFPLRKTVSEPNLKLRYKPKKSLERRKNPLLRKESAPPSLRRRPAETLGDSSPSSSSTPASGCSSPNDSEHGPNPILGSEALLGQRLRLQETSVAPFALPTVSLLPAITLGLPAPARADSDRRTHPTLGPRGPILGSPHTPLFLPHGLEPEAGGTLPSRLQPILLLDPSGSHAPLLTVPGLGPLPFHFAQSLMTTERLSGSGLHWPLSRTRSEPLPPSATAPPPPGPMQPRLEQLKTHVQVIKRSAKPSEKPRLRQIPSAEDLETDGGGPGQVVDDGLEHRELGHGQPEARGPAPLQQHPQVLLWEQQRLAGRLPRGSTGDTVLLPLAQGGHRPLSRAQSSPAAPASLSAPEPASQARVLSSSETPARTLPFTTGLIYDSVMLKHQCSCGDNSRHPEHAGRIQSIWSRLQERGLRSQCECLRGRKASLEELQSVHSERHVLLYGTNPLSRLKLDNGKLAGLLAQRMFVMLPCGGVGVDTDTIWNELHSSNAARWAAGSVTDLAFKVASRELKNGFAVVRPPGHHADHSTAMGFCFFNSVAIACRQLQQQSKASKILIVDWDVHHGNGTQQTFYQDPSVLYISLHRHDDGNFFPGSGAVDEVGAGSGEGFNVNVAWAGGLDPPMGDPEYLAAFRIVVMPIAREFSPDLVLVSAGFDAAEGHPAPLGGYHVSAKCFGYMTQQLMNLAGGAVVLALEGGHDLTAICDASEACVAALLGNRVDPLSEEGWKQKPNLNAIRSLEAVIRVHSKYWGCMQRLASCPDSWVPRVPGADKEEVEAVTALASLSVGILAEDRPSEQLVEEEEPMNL
Method: (§1) Briefly, transiently transfected cells were harvested three days post-transfection and the cell pellets resuspended in a lysis buffer (50 mM Tris, 150 mM NaCl, 10 mM KCl, 2 mM MgCl2, 10% glycerol, 0.2% NP-40, 2 Units/mL benzonase, pH 8) supplemented with a cocktail of protease inhibitors (Roche, Basel, Switzerland). Cells were lysed by sonication (30 W; 3×20 s) on ice, and the cell lysate cleared by centrifugation at 40 000×g for 30 min at 4° C. […] Purified proteins were concentrated to 1 mg/mL, aliquoted, flash-frozen in liquid nitrogen, and stored at −80° C. until further use.
(§2) Briefly, individual HDACs were preincubated with dilution series of tested inhibitors (0-100 μM) in a 384-well plate in the total volume of 40 μL for 10 min at 37° C. in a reaction buffer comprising 50 mM HEPES, 140 mM NaCl, 10 mM KCl, 1 mM TCEP, 0.1% BSA, pH 7.4. Deacetylation reaction was started by the addition of 10 μL of a 10 μM substrate into the HDAC/inhibitor mixture. Following the 30 min incubation at 37° C., the reaction was terminated by the addition of 25 μL of the trypsin solution (4 mg/mL). Fluorescence development by trypsin was carried out at 37° C. for 15 and 60 min for Ac-GAK(Ac)-AMC and Boc-Lys(TFA)-AMC substrate, respectively. […] Non-linear regression analysis was employed to calculate IC50 values using the GraphPad Prism software. […] Reactions without the enzyme or the inhibitor were used to define 0% and 100% of the HDAC activity, respectively.

HDAC4 = HDAC4 (Homo sapiens, UniProt P56524); assay: Fluorescence-based HDAC inhibition assay, HDAC4; assay type: biochemical; details: for IC50: 10 μM Boc-Lys(TFA)-AMC substrate, mean of two experiments ± SEM
Method: as §1, with “Large scale expression of human HDACs was carried out in HEK293/T17 cells essentially as described previously (see, e.g., Falkenberg et al., Nat. Rev. Drug Discov. 13, 673-691 (2014); or Matthias et al., Cell Cycle 7: 7-10 (2008)). Briefly,” for “Briefly,”
Briefly, individual HDACs were preincubated with dilution series of tested inhibitors (0-100 μM) in a 384-well plate in the total volume of 40 μL for 10 min at 37° C. in a reaction buffer comprising 50 mM HEPES, 140 mM NaCl, 10 mM KCl, 1 mM TCEP, 0.1% BSA, pH 7.4. Deacetylation reaction was started by the addition of 10 μL of a 10 μM substrate into the HDAC/inhibitor mixture. Following the 30 min incubation at 37° C., the reaction was terminated by the addition of 25 μL of the trypsin solution (4 mg/mL). Fluorescence development by trypsin was carried out at 37° C. for 15 and 60 min for Ac-GAK(Ac)-AMC and Boc-Lys(TFA)-AMC substrate, respectively. Released aminomethylcoumarin was quantified using a CLARIOstar fluorimeter with the excitation and emission wavelengths set to 365 nm and 440 nm, respectively. Non-linear regression analysis was employed to calculate IC50 values using the GraphPad Prism software. […] Reactions without the enzyme or the inhibitor were used to define 0% and 100% of the HDAC activity, respectively.

HDAC2 = biological target: T2, HDAC2 (Homo sapiens, UniProt Q92769); assay: Fluorescence-based HDAC inhibition assay, HDAC2; assay type: biochemical; details: for IC50: 10 μM Ac-GAK(Ac)-AMC substrate, mean of two experiments ± SEM
T2 construct: made in house; host or cells: HEK293/T17 cells, transient transfection
Method: as §1, §2

[2] = Stability in simulated gastric fluid (SGF)
HDAC9 = biological target: T3, HDAC9 (Homo sapiens, UniProt Q9UKV0); assay: Fluorescence-based HDAC inhibition assay, HDAC9; assay type: biochemical; details: for IC50: 10 μM Boc-Lys(TFA)-AMC substrate, mean of two experiments ± SEM
T3 construct: made in house; host or cells: HEK293/T17 cells, transient transfection
Method: as §1, §2

HDAC5 = biological target: T4, HDAC5 (Homo sapiens, UniProt Q9UQL6); assay: Fluorescence-based HDAC inhibition assay, HDAC5; assay type: biochemical; details: for IC50: 10 μM Boc-Lys(TFA)-AMC substrate, mean of two experiments ± SEM
T4 construct: made in house; host or cells: HEK293/T17 cells, transient transfection
Method: as §1, §2

T2 sequence (Q92769 whole entry): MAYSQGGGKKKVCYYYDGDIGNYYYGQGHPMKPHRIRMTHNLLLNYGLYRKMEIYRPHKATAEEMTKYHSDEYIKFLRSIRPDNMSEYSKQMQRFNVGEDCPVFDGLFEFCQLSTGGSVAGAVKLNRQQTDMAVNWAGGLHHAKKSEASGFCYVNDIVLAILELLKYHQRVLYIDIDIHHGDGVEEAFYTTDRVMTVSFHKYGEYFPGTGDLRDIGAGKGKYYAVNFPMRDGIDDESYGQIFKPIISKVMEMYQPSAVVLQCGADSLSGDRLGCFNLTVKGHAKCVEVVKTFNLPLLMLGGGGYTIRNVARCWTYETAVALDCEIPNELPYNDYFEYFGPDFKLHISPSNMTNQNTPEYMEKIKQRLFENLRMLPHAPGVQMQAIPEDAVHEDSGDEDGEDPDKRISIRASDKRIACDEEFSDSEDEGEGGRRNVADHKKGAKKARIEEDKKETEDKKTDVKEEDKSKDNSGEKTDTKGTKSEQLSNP
HDAC4, sequence (P56524 whole entry): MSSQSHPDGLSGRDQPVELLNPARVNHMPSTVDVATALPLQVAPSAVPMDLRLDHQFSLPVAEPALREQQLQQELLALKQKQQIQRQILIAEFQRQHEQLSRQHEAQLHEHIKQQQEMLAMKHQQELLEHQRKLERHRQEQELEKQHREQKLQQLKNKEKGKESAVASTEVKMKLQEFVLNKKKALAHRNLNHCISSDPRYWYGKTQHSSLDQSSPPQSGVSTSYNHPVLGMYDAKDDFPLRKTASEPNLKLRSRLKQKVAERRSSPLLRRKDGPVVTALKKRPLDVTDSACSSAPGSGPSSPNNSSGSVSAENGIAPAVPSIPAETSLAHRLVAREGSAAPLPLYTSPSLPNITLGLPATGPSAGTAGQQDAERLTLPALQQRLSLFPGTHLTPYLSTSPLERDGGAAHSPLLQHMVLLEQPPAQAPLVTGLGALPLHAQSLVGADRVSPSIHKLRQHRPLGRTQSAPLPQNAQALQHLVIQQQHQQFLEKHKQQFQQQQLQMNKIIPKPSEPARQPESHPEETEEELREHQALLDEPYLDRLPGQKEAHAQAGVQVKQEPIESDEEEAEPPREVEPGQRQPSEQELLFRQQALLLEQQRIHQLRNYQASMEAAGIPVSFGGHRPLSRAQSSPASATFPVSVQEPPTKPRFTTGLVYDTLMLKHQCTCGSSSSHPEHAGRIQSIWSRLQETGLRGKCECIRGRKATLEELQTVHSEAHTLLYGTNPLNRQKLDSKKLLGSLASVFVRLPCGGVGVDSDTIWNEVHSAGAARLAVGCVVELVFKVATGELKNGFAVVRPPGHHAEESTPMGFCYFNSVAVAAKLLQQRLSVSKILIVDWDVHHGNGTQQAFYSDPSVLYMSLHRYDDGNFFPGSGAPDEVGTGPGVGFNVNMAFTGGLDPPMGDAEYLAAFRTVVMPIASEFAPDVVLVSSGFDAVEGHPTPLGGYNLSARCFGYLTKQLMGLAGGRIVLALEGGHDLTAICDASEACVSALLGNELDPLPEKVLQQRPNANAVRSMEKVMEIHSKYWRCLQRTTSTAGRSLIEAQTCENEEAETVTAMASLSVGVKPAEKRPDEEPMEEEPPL
T4 sequence (Q9UQL6 whole entry): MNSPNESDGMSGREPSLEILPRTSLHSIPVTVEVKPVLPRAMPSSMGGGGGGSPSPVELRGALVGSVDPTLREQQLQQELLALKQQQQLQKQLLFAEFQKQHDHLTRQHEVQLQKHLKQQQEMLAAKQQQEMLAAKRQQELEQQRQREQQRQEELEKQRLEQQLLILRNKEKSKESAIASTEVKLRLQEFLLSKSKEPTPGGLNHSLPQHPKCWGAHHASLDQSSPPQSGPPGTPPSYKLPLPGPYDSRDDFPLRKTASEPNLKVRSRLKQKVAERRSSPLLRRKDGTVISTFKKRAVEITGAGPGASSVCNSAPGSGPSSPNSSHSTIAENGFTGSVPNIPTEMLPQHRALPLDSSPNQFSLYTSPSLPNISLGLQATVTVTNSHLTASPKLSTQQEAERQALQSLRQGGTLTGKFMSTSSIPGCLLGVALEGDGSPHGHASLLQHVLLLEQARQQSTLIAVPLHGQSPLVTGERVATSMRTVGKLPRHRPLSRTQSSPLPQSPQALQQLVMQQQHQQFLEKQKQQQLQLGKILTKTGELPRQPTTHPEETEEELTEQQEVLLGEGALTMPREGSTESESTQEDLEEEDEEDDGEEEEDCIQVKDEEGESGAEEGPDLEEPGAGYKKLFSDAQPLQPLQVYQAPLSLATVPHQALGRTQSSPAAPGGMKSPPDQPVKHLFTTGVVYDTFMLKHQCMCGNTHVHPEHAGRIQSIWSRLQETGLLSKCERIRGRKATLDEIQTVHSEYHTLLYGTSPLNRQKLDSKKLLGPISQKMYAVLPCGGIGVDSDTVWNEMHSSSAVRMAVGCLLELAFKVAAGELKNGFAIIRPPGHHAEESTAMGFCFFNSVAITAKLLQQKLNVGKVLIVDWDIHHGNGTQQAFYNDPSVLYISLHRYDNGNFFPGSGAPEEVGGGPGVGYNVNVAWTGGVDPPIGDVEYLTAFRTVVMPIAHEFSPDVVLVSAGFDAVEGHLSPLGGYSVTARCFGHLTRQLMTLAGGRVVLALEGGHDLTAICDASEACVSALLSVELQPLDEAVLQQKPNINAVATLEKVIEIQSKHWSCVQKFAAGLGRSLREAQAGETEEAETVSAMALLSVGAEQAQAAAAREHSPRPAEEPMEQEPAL
T3 sequence (Q9UKV0 whole entry): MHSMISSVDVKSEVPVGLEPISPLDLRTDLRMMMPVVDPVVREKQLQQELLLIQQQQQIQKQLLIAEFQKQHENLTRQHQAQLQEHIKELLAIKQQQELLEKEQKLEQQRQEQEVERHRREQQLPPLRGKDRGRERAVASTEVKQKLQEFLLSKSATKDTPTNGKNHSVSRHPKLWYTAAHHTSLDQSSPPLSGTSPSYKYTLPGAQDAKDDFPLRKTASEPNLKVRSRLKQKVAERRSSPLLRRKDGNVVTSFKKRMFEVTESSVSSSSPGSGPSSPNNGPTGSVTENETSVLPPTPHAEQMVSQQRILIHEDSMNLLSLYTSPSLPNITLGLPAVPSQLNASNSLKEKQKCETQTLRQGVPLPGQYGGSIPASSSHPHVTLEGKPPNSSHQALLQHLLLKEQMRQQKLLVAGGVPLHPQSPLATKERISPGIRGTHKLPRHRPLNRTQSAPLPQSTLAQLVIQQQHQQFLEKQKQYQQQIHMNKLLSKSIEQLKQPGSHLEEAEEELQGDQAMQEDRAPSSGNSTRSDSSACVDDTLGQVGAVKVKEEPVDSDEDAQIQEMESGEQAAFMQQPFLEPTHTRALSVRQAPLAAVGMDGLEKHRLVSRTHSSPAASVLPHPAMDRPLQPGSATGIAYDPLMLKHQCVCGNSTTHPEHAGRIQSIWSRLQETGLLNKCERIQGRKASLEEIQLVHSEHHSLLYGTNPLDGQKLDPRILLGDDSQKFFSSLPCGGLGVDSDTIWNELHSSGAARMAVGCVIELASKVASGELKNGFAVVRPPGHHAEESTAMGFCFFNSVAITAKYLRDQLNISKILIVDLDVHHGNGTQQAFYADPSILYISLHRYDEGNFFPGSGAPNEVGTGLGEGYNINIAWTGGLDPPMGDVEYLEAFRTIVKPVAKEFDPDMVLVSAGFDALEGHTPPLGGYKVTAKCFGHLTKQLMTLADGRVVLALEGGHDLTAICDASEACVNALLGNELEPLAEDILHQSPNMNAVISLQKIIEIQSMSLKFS

SMILES	Rat liver microsomes (t1/2, min) [1] [min]	Human plasma binding (%) (plasma protein)	Human plasma binding (%) (plasma protein; listed as Suprastat)	SI (HDAC6 selectivity index over HDAC7) (HDAC7)	IC50 (HDAC7) [µM]	SI (HDAC6 selectivity index over HDAC4) (HDAC4)	IC50 (HDAC4) [µM]	SI (HDAC6 selectivity index over HDAC2) (HDAC2)	IC50 (HDAC2) [µM]	SGF stability (t1/2, h) [2] [h]	SI (HDAC6 selectivity index over HDAC9) (HDAC9)	IC50 (HDAC9) [µM]	SI (HDAC6 selectivity index over HDAC5) (HDAC5)	IC50 (HDAC5) [µM]
NCc1ccc(NC(=O)N(CCCCO)Cc2ccc(C(=O)NO)cc2)cc1 [Compound 6a, 4-((3-(4-(Aminomethyl)phenyl)-1-(4-hydroxybutyl)ureido)methyl)-N-hydroxybenz-amide]	177	1.9%	1.9	3,680	1.47	20,600	8.25	440	0.176 ± 0.021	>5	15,700	6.27	8,550	3.42
CCCCN(Cc1ccc(C(=O)NO)cc1)C(=O)Nc1ccc(CN)cc1 [Compound 6b, 4-((3-(4-(Aminomethyl)phenyl)-1-butylureido)methyl)-N-hydroxybenzamide]	173	approximately 50%		10,000	9	25,700	23.1	312	0.281 ± 0.028	>5	19,200	17.3	11,200	10.1
O=C(NO)c1ccc(CN(CCCCO)C(=O)Nc2ccccc2)cc1 [Compound 6c, reference compound]	198	approximately 50%			1.93		14	536	0.268 ± 0.016	>5	59,50	29.7		9.13

From patent publication US20230250054A1, “SELECTIVE HISTONE DEACETYLASE 6 INHIBITORS” (The Board of Trustees of the University of Illinois, priority 2020, published 2023)
